Patent US20210238184A1, “THERAPEUTIC COMPOUNDS” (Genentech, Inc., priority 2018, published 2021)

Assays:
[1] = biological target: TEAD3 YAP50-100 (Homo sapiens, UniProt Q99594); test: TEAD3:YAP50-100 protein-protein interaction HTRF (TR-FRET) assay; settings: His-tagged TEAD YAP binding domain (aa 217-447), biotinylated YAP peptide aa 50-100; 30 min pre-incubation, 60 min at room temperature; read-out: TEAD3 YAP50-100 HTRF WuXi EC50
Method: (§1) Purified His-tagged TEAD protein (YAP Binding Domain, amino acids 217-447) is pre-incubated with Europium labelled anti-His antibody tracer (Perkin Elmer Cat #AD0110). Small molecule Inhibitors are then incubated with the TEAD-Eu protein complex for 30 minutes to allow for binding to TEAD protein. Biotinylated YAP peptide (AA's 50-100) that has been pre-incubated with streptavidin x1665 acceptor (CIS-Bio Cat #610SAXAC) is added to the compound-TEAD mix. The TEAD-YAP-inhibitor mixture is then incubated for 60 minutes at room temperature. All reactions are carried out in a polystyrene plate. After 60 minutes, the plate is read on a plate reader using TR-FRET mode with wavelengths of 665 nm/615 nm. If YAP binds to TEAD as expected, a TR-FRET signal results from the proximity of YAP and TEAD after binding. If an inhibitor such as peptide 17 (Selleckchem Cat #S8164) interferes with YAP-TEAD binding, the disruption of the YAP:TEAD interaction results in a decrease in TR-FRET signal. The potency of compounds as YAP:TEAD protein-protein interaction (PPi) inhibitors is determined by an IC50 or EC50 value generated using a non-linear four parameter curve fit.

[2] = biological target: TEAD2 YAP50-100 (Homo sapiens, UniProt Q15562); test: TEAD2:YAP50-100 protein-protein interaction HTRF (TR-FRET) assay; settings: His-tagged TEAD YAP binding domain (aa 217-447), biotinylated YAP peptide aa 50-100; 30 min pre-incubation, 60 min at room temperature; read-out: TEAD2 YAP50-100 HTRF WuXi EC50
Chain of TEAD2 YAP50-100 (Q15562 217-447): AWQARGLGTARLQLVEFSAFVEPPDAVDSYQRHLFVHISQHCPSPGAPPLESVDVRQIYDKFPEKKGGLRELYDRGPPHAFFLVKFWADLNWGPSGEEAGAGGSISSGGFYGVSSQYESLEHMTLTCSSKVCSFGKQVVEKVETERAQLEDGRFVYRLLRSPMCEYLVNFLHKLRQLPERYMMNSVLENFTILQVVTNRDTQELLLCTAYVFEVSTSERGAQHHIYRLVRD
Method: as §1

Chain of TEAD3 YAP50-100 (Q99594 216-435 limits assumed): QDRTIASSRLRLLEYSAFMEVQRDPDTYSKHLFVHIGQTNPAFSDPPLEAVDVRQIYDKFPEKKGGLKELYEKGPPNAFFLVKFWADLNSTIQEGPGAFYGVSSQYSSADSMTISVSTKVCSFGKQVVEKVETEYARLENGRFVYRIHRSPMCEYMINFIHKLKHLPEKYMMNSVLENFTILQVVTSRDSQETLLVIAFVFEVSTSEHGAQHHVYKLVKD

Row | EC50 [1] [nM] | EC50 [2] [nM] | Structure (SMILES)
1 | 175 | 3700 | CCOC(=O)c1cnn2c(=O)cc(-c3ccc(N(C)CC4CC4)cc3)[nH]c12 [Example 32, Ethyl 5-(4-((cyclopropylmethyl)(methyl)amino)phenyl)-7-oxo-4,7-dihydro pyrazolo[1,5-a]pyrimidine-3-carboxylate]
2 | 765 | 2190 | CCOC(=O)c1cnn2c(=O)cc(-c3ccc(C4(c5ccccc5)CC4)cc3)[nH]c12 [Example 33, Ethyl 7-oxo-5-(4-(1-phenylcyclopropyl)phenyl)-4,7-dihydropyrazolo[1,5-a]pyrimidine-3-carboxylate]
3 | 41 | 1030 | CCOC(=O)c1cnn2c(=O)cc(-c3ccc(-c4ccccc4)cc3)[nH]c12 [Example 34, Ethyl 5-([1,1^1-biphenyl]-4-yl)-7-oxo-4,7-dihydropyrazolo[1,5-a]pyrimidine-3-carboxylate]
4 | 95 | 1630 | O=C(c1cnn2c(=O)cc(-c3ccc(-c4ccccc4)cc3)[nH]c12)N1CCC1 [Example 35, 5-([1,1′-Biphenyl]-4-yl)-3-(azetidine-1-carbonyl)pyrazolo[1,5-a]pyrimidin-7(4H)-one]
5 | 28 | 1870 | CN(C)C(=O)c1cnn2c(=O)cc(-c3ccc(C4CCC4)cc3)[nH]c12 [Example 36, 5-(4-Cyclobutylphenyl)-N,N-dimethyl-7-oxo-4,7-dihydropyrazolo[1,5-a]pyrimidine-3-carboxamide]
6 | 52.2 | 8.79 | N#C[C@@H]1CCN(C(=O)c2cnn3c(=O)cc(-c4ccc(C5CCCCC5)cc4)[nH]c23)C1 [Example 37, (R)-1-(5-(4-Cyclohexylphenyl)-7-oxo-4,7-dihydropyrazolo[1,5-a]pyrimidine-3-carbonyl)pyrrolidine-3-carbonitrile]
7 | 27 | 12 | O=C(c1cnn2c(=O)cc(-c3ccc(C4CCCCC4)cc3)[nH]c12)N1CC(C(F)F)C1 [Example 38, 5-(4-Cyclohexylphenyl)-3-(3-(difluoromethyl)azetidine-1-carbonyl)pyrazolo[1,5-a]pyrimidin-7(4H)-one]
8 | 405 | 295 | O=C(c1cnn2c(=O)cc(-c3ccc(C4CCCCC4)cc3)[nH]c12)N1CC(C(F)(F)F)C1 [Example 39, 5-(4-Cyclohexylphenyl)-3-(3-(trifluoromethyl)azetidine-1-carbonyl)pyrazolo[1,5-a]pyrimidin-7(4H)-one]
9 | 18.5 | 12.5 | CC1(F)CN(C(=O)c2cnn3c(=O)cc(-c4ccc(C5CCCCC5)cc4)[nH]c23)C1 [Example 40, 5-(4-Cyclohexylphenyl)-3-(3-fluoro-3-methylazetidine-1-carbonyl)pyrazolo[1,5-a]pyrimidin-7(4H)-one]
10 | 10 | 4.5 | O=C(c1cnn2c(=O)cc(-c3ccc(C4CCCCC4)cc3)[nH]c12)N1CC(CF)C1 [Example 41, 5-(4-Cyclohexylphenyl)-3-(3-(fluoromethyl)azetidine-1-carbonyl)pyrazolo[1,5-a]pyrimidin-7(4H)-one]
11 | 39.5 | 14.5 | O=C(c1cnn2c(=O)cc(-c3ccc(C4CCCCC4)cc3)[nH]c12)N1CCC(F)(F)C1 [Example 42, 5-(4-Cyclohexylphenyl)-3-(3,3-difluoropyrrolidine-1-carbonyl)pyrazolo[1,5-a]pyrimidin-7(4H)-one]
12 | 28 | 22.5 | O=C(c1cnn2c(=O)cc(-c3ccc(C4CCCCC4)cc3)[nH]c12)N1CC[C@@H]1CF [Example 43, (R)-5-(4-cyclohexylphenyl)-3-(2-(fluoromethyl)azetidine-1-carbonyl)pyrazolo[1,5-a]pyrimidin-7(4H)-one]
13 | 13 | 5.85 | N#CC1CN(C(=O)c2cnn3c(=O)cc(-c4ccc(C5CCCCC5)cc4)[nH]c23)C1 [Example 44]
